This is an account of results in patent publication US20150105252A1, “SUBSTITUTED PYRAZOLES AS HERBICIDES” (E I DU PONT DE NEMOURS AND COMPANY, priority 2013, published 2015).

One test deals with galium. As to the kind of experiment: Test D postemergence. It is filed as in vivo, Galium aparine. The settings on record: scale 0 to 100; for Plant response rating, Galium: 16 g ai/ha. An excerpt: (§1) Seeds of plant species selected from bluegrass (annual bluegrass, Poa annua), blackgrass (Alopecurus myosuroides), canarygrass (littleseed canarygrass, Phalaris minor), chickweed (common chickweed, Stellaria media), galium (catchweed bedstraw, Galium aparine), bromegrass, downy (downy bromegrass, Bromus tectorum), field poppy (Papaver rhoeas), field violet (Viola arvensis), foxtail, green (green foxtail, Setaria viridis), deadnettle (henbit deadnettle, Lamium amplexicaule), ryegrass, Italian (Italian ryegrass, Lolium multiflorum), kochia (Kochia scoparia), lambsquarters (Chenopodium album), oilseed rape (Brassica napus), pigweed (redroot pigweed, Amaranthus retroflexus), chamomile (scentless chamomile, Matricaria inodora), speedwell (bird's-eye speedwell, Veronica persica), barley, spring (spring barley, Hordeum vulgare), wheat, spring (spring wheat, Triticum aestivum), buckwheat, wild (wild buckwheat, Polygonum convolvulus), mustard, wild (wild mustard, Sinapis arvensis), oat, wild (wild oat, Avena fatua), radish, wild (wild radish, Raphanus raphanistrum), windgrass (Apera spica-venti), Russian thistle (Salsola kali), barley, winter (winter barley, Hordeum vulgare), and wheat, winter (winter wheat, Triticum aestivum) were planted into a silt loam soil and treated preemergence with test chemicals formulated in a non-phytotoxic solvent mixture which included a surfactant.
(§2) At the same time, these species were planted in pots containing Redi-Earth® planting medium (Scotts Company, 14111 Scottslawn Road, Marysville, Ohio 43041) comprising spaghnum peat moss, vermiculite, wetting agent and starter nutrients and treated with postemergence applications of the test chemicals formulated in the same manner. Plants ranged in height from 2 to 18 cm (1- to 4-leaf stage). Treated plants and controls were maintained in a controlled growth environment for 14 to 21 days after which time all species were compared to controls and visually evaluated. Plant response ratings, summarized in Table D, are based on a scale of 0 to 100 where 0 is no effect and 100 is complete control. A dash (-) response means no test result.

The subject of the next test is speedwell. As to the kind of experiment: Test D preemergence. The test is classed as in vivo, Veronica persica. The settings on record: for Plant response rating, Speedwell: Preemergence, scale 0 to 100.
Description: as §1, §2

The test system of test [1] is ducksalad. As to the kind of experiment: Test B flood. It is filed as in vivo, Heteranthera limosa. The settings on record: 250 g ai/ha, visual rating on 0 to 100 scale (0 no effect, 100 complete control), 13 to 15 days. A digest of the protocol:
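Flooded-pot test: compound dosed into 3 cm of standing water above soil when plants had two leaves. Visual control ratings (0–100) versus untreated plants after 13–15 d.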

In a further test the test system is ryegrass, Italian. The experiment in a line: Test C postemergence. The test is classed as in vivo, Lolium multiflorum. To be noted: for Plant response rating, Ryegrass, Italian / Ryegrass, Italian plant response rating: postemergence; for Plant response rating (scale of 0 to 100 where 0 is no effect and 100 is complete control), Ryegrass, Italian: Postemergence, 31 g ai/ha, visually evaluated after 13 to 15 days; for Ryegrass, Italian plant response rating: scale 0 to 100. Summed up: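 Postemergence values come from plants sprayed at the 1- to 4-leaf stage (2–18 cm) in peat moss–vermiculite medium; preemergence values from seeds treated in a loam–sand blend. Both evaluated visually against controls after 13–15 greenhouse days, scale 0–100.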

For the next test, the system named is oilseed rape. As to the kind of experiment: Test D preemergence. It is filed as in vivo, Brassica napus. To be noted: for Plant response rating, Oilseed Rape: Preemergence, scale 0 to 100; for Plant response rating (scale 0 to 100), Oilseed Rape: 16 g ai/ha, taken as preemergence.
Description: as §1, §2

For test [2], the system named is ducksalad. As to the kind of experiment: Test C flooded paddy test. The test is classed as in vivo, Heteranthera limosa. The settings on record: Flood. Summed up:
(§3)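 In-water treatment: compound dosed into 3 cm flood over soil, water level unchanged throughout. Controls run alongside; visual assessment at day 13–15.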

Another test deals with barnyardgrass. As to the kind of experiment: Test C flooded paddy test. The settings on record: Flood. The test is classed as in vivo, Echinochloa crus-galli. A digest of the protocol: as §3
For the next test, the system named is rice. As to the kind of experiment: Test C flooded paddy test. The test is classed as in vivo, Oryza sativa. The settings on record: Flood. Summed up: as §3
Another test deals with sedge, umbrella. The experiment in a line: Test C flooded paddy test. It is filed as in vivo, Cyperus difformis. To be noted: Flood. Summed up: as §3
[3] abbreviates: 250 g ai/ha, scale 0 to 100 (0 no effect, 100 complete control).
The mark [4] stands for this setting: 125 g ai/ha, scale 0 to 100, 0 no effect, 100 complete control.
Where [5] appears, read: 31 g ai/ha, scale 0 to 100 (0 no effect, 100 complete control).
[6] abbreviates: 62 g ai/ha, scale 0 to 100 (0 no effect, 100 complete control).

The structures appear in SMILES notation.

Consider `CCCc1cc(C(=O)NC2CC2)nn1Cc1cc(C(F)(F)F)nn1C` [Compound 202], for which the “Galium plant response rating” value in the test on galium (Postemergence, 31 g ai/ha) stood at 70; in the test on galium (Postemergence, 125 g ai/ha), 70; with galium (Postemergence, 250 g ai/ha), 75; with galium (postemergence, 62 g ai/ha), 70. Also, the “Plant response rating, Speedwell” value in the test with speedwell (62 g ai/ha), in the test on speedwell (125 g ai/ha) and in the test on speedwell (250 g ai/ha) was 100 each time. Moreover, the “Plant response rating, Ducksalad” value in the test with ducksalad [1] worked out at 95. Also, the “Plant response rating, Ryegrass, Italian” value in the test with ryegrass, Italian (setting [3]) worked out at 5; in the test on ryegrass, Italian (setting [4]), 5. The “Plant response rating, Oilseed Rape” value in the test on oilseed rape (62 g ai/ha) was determined as 65; in the test with oilseed rape (125 g ai/ha), 70; in the test on oilseed rape (250 g ai/ha), 90.
Consider `CCc1cc(C(=O)NC2CC2)nn1Cc1ccnc(C(F)(F)F)c1` [Compound 76], for which the “Plant response rating, Galium” value with galium (Postemergence) worked out at 55. The “Galium plant response rating” value in the test with galium (Postemergence, 31 g ai/ha) turned out to be 70; in the test on galium (Postemergence, 125 g ai/ha) it was 75; in the test with galium (Postemergence, 250 g ai/ha), 95; with galium (postemergence, 62 g ai/ha), 75. For the same compound, the “Plant response rating (scale 0 to 100), Speedwell” value in the test on speedwell (16 g ai/ha, taken as preemergence) was 100. Moreover, the “Plant response rating, Speedwell” value in the test on speedwell (31 g ai/ha), in the test with speedwell (62 g ai/ha), with speedwell (125 g ai/ha) and in the test with speedwell (250 g ai/ha) was 100 throughout. Moreover, the “Plant response rating, Ducksalad” value in the test with ducksalad [1] amounted to 85. Moreover, the “Plant response rating (scale of 0 to 100 where 0 is no effect and 100 is complete control), Ryegrass, Italian” value with ryegrass, Italian turned out to be 5. For the same compound, in the test with ryegrass, Italian (62 g ai/ha), the “Ryegrass, Italian plant response rating” value worked out at 5. The “Plant response rating, Ryegrass, Italian” value is 10 in the test on ryegrass, Italian (setting [3]) and 5 with ryegrass, Italian (setting [4]). Moreover, in the test with oilseed rape, the “Plant response rating (scale 0 to 100), Oilseed Rape” value came out at 10. For the same compound, the “Plant response rating, Oilseed Rape” value is given as 30 in the test with oilseed rape (31 g ai/ha), 65 with oilseed rape (62 g ai/ha), 90 with oilseed rape (125 g ai/ha) and 100 in the test on oilseed rape (250 g ai/ha).
As for `CCc1cc(C(=O)NOC(C)C)nn1Cc1cccc(OC(F)(F)F)c1` [Compound 70], in the test on galium (Postemergence), the “Plant response rating, Galium” value amounted to 50. Besides, the “Galium plant response rating” value in the test with galium (Postemergence, 31 g ai/ha) came out at 60; with galium (Postemergence, 125 g ai/ha), 75; in the test on galium (Postemergence, 250 g ai/ha) it was 80; with galium (postemergence, 62 g ai/ha), 70. The “Plant response rating, Ducksalad” value turned out to be 30 in the test with ducksalad [2] (setting [5]); 40 in the test on ducksalad [2] (setting [6]); 85 in the test on ducksalad [2] (125 g ai/ha, scale 0 to 100); 85 in the test with ducksalad [2] (250 g ai/ha, scale 0 to 100). The “Plant response rating, Barnyardgrass” value with barnyardgrass (setting [5]) is 0; in the test on barnyardgrass (setting [6]), 0; in the test on barnyardgrass (125 g ai/ha, scale 0 to 100), 45; in the test with barnyardgrass (250 g ai/ha, scale 0 to 100) it was 65. In addition, the “Plant response rating, Ryegrass, Italian” value stood at 50 in the test on ryegrass, Italian (setting [3]); 25 in the test on ryegrass, Italian (62 g ai/ha, scale 0 to 100, 0 no effect, 100 complete control); 35 with ryegrass, Italian (setting [4]). Moreover, the “Plant response rating, Rice” value in the test on rice (setting [5]) was 0; in the test with rice (setting [6]) it was 0; in the test with rice (125 g ai/ha, scale 0 to 100), 25; with rice (250 g ai/ha, scale 0 to 100) it was 50. For the same compound, the “Plant response rating (scale 0 to 100), Oilseed Rape” value in the test on oilseed rape turned out to be 0. Besides, the “Plant response rating, Oilseed Rape” value with oilseed rape (31 g ai/ha) came to 0; in the test on oilseed rape (62 g ai/ha) it was 0; with oilseed rape (125 g ai/ha), 10; with oilseed rape (250 g ai/ha), 40. For the same compound, the “Plant response rating, Sedge, Umbrella” value stood at 75 in the test on sedge, umbrella (setting [5]); 75 with sedge, umbrella (setting [6]); 85 in the test on sedge, umbrella (125 g ai/ha, scale 0 to 100); 90 with sedge, umbrella (250 g ai/ha, scale 0 to 100).
Turning to `CCCc1cc(C(=O)NCC(F)(F)F)nn1Cc1ccnc(OC(F)F)c1` [Compound 127], the “Plant response rating, Ducksalad” value in the test with ducksalad [2] (setting [5]) amounted to 30; with ducksalad [2] (setting [6]), 40; with ducksalad [2] (125 g ai/ha, scale 0 to 100), 60; in the test on ducksalad [2] (250 g ai/ha, scale 0 to 100), 80; in the test with ducksalad [1] it was 95. Also, the “Plant response rating, Barnyardgrass” value was 0 with barnyardgrass (setting [5]); 0 with barnyardgrass (setting [6]); 15 in the test on barnyardgrass (125 g ai/ha, scale 0 to 100); 30 in the test with barnyardgrass (250 g ai/ha, scale 0 to 100). Also, in the test with ryegrass, Italian, the “Plant response rating (scale of 0 to 100 where 0 is no effect and 100 is complete control), Ryegrass, Italian” value turned out to be 5. Further, in the test on ryegrass, Italian (62 g ai/ha), the “Ryegrass, Italian plant response rating” value came to 5. Also, the “Plant response rating, Ryegrass, Italian” value in the test on ryegrass, Italian (setting [3]) came to 40; in the test on ryegrass, Italian (setting [4]), 10. Also, the “Plant response rating, Rice” value in the test on rice (setting [5]) is 0; in the test with rice (setting [6]) it was 0; with rice (125 g ai/ha, scale 0 to 100), 0; with rice (250 g ai/ha, scale 0 to 100), 0. For the same compound, the “Plant response rating, Sedge, Umbrella” value was 50 in the test on sedge, umbrella (setting [5]); 60 with sedge, umbrella (setting [6]); 70 with sedge, umbrella (125 g ai/ha, scale 0 to 100); 95 in the test on sedge, umbrella (250 g ai/ha, scale 0 to 100).
On to `CCCc1cc(C(=O)NC(C)C)nn1Cc1cc(C(F)(F)F)nn1C` [Compound 201], for which the “Galium plant response rating” value in the test with galium (Postemergence, 31 g ai/ha) is listed as 70; in the test with galium (Postemergence, 125 g ai/ha), 70; with galium (Postemergence, 250 g ai/ha) it was 85; in the test with galium (postemergence, 62 g ai/ha), 70. The “Plant response rating, Speedwell” value in the test on speedwell (62 g ai/ha), with speedwell (125 g ai/ha) and in the test on speedwell (250 g ai/ha) was 100 throughout. Moreover, in the test with ducksalad [1], the “Plant response rating, Ducksalad” value is given as 95. Also, the “Plant response rating, Ryegrass, Italian” value is 15 in the test on ryegrass, Italian (setting [3]) and 5 with ryegrass, Italian (setting [4]). For the same compound, the “Plant response rating, Oilseed Rape” value in the test on oilseed rape (62 g ai/ha), in the test with oilseed rape (125 g ai/ha) and in the test on oilseed rape (250 g ai/ha) was 100 in each case.
With `CCc1cc(C(=O)NCC(F)(F)F)nn1Cc1ccnc(SC(F)(F)F)c1` [Compound 214], the “Galium plant response rating” value amounted to 80 in the test with galium (Postemergence, 31 g ai/ha); 80 with galium (Postemergence, 125 g ai/ha); 100 in the test on galium (Postemergence, 250 g ai/ha); 80 in the test with galium (postemergence, 62 g ai/ha). Besides, the “Plant response rating, Speedwell” value with speedwell (62 g ai/ha), with speedwell (125 g ai/ha) and with speedwell (250 g ai/ha) was 100 in each case. Besides, the “Plant response rating, Ducksalad” value with ducksalad [1] amounted to 90. For the same compound, the “Plant response rating, Ryegrass, Italian” value in the test with ryegrass, Italian (setting [3]) is reported as 15; with ryegrass, Italian (setting [4]), 5. The “Plant response rating, Oilseed Rape” value with oilseed rape (62 g ai/ha) is listed as 65; in the test with oilseed rape (125 g ai/ha), 100; in the test with oilseed rape (250 g ai/ha), 100.
